Assay results taken from publication PMC6348381, “Discovery of an MLLT1/3 YEATS Domain Chemical Probe” (Angewandte Chemie (International Ed. in English), 2018).

Assays:
MLLT1 YD = molecular target: T1, MLLT1 YD (Homo sapiens, UniProt Q03111); experiment: AlphaScreen (AS) assay, MLLT1 YEATS domain; assay type: binding
T1 construct: made in house; host or cells: E. coli Rosetta
T1 sequence (Q03111 1-138 limits assumed): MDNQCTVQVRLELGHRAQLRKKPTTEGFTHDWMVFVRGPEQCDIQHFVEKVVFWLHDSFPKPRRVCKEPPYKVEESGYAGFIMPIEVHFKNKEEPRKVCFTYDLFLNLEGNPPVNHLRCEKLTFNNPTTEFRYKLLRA
Method: II.IV Protein Expression and Purification
Human bromodomains were cloned, expressed and purified as previously described. The cloning, expression and purification of human YEATS domains are described as follows; Sequences for the wild type YEATS domains of MLLT1, MLLT3, GAS41 and YEATS2 were cloned into expression vectors (Table S1). E. coli Rosetta cells were grown in TB medium at 37°C. Overexpression was induced after five hours by addition of IPTG to a final concentration of 0.4 mM and cells were incubated at 17°C overnight. Cells were harvested by centrifugation and the cell pellet was resuspended in cold binding buffer (50 mM Tris at pH 7.5, 500 mM NaCl, 20 mM imidazole, 2 mM DTT) on a magnetic stirring plate at 4°C. The suspension was lysed using an Avestin EmulsiFlex-C5 homogeniser (1 pass without pressure, four passes with pressure between 1000-1500 bar). The lysate was clarified via centrifugation at 16,000 rpm at 4°C for 1 hour (JLA-16 rotor in Beckmann Coulter Avanti J- […]
The supernatant was loaded onto a standard NiNTA column (HisTrap
FF, 5 ml, GE Healthcare Lifesciences) on an ÄKTAxpress system (GE). After washing with binding buffer, the target protein was eluted at 300 mM imidazole. The eluted peak fractions were pooled and concentrated to 5 ml (Amicon concentrators, 10 kDa molecular weight cut off (MWCO)) and then separated via size exclusion chromatography (buffered with 20 mM Tris at pH 7.5, 500 mM NaCl, 2 mM DTT) using a GE Superdex 75 column on an […]
(NanoDrop ND-1000 Spectrophotometer) and protein identity was verified via SDS-PAGE and LC/MS. Pooled fractions were then again concentrated to at least 2 mg/ml and stored at […]
(§1) (1 picture or pasted object on this page, not shown here)

FALZ = FALZ (Homo sapiens, UniProt Q12830); experiment: AlphaScreen selectivity screen, FALZ; assay type: binding
From the text: (§2) IC50 (µM) IC50 (µM) IC50 (µM) IC50 (µM) (µM) (µM) (µM)
(§3) Supplementary Table 1. […]

[1] = molecular target: T2, endogenous MLLT1 in MV4;11 cells (Homo sapiens, UniProt Q03111); experiment: Cellular thermal shift assay (CETSA), MV4;11 cells; assay type: cell-based; details: up to 10 μM
T2 construct: with endogenous MLLT1 in MV4;11 cells; endogenous in cells; host or cells: MV4;11
T2 sequence (Q03111 whole entry): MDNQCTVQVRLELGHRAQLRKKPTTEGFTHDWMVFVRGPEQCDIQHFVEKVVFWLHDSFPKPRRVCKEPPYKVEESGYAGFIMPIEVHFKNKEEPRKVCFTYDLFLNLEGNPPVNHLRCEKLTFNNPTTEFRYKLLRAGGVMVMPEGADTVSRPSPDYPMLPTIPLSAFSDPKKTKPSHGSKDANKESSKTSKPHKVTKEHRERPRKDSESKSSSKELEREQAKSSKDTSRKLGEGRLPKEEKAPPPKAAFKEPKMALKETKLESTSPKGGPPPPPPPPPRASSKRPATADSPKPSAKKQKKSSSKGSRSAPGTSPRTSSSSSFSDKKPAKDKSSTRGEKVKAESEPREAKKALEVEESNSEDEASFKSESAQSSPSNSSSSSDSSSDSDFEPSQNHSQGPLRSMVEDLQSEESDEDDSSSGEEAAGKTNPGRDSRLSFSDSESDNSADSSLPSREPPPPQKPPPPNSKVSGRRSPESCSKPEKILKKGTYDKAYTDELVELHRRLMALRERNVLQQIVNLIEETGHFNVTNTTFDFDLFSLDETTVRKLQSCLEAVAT
Method: (§4) Supplementary Table 2. Thermal stabilisation of compound 1, 92 and Bromosporine with recombinant human bromodomain proteins. *50 µM compound concentration. †10 µM compound […]
(§5) II.VIII Cellular Thermal Shift Assay[6]
(§6) HEK293 and MV4;11 cells were cultured at 37 °C in a humidified 5% CO2 atmosphere in DMEM Medium containing 10% FBS, respectively. Cells were grown until approximately […]
(§7) DMSO final concentrati on) for 30 minutes. Cells were then collected, washed with PBS, transferred in PCR tubes, and pelleted by centrifugation (300 g, 3 min, RT.) The PBS was removed, and the cell pellets heated at the indicated temperature for 3 minutes in a PCR machine (UNO96 , VMR) and then placed on ice. Lysis buffer (50 mM Tris pH 7.5, 0.8% v/v NP-40, 5% v/v glycerol, 1.5 mM MgCl2, 100 mM NaCl, 25 mM NaF, 1mM Na3VO4, 1mM PMSF, 1mM DTT, 10 μg/mL TLCK, 1 μg/mL Leupeptin, 1 μg/mL Aprotinin, 1 μg/mL soy bean trypsin, ≥250 units/ mL Benzonase) was added and the cells lysed by 3 freeze -thaw cycles in liquid nitrogen. Aggregated proteins were removed by centrifugation (17000 g, 20 min, 4 °C) and the protein concentration of the retained soluble fraction determined. 4× sample loading buffer (Bio-Rad) containing 20% v/v DTT was added and samples were heated for 6 min at 90 °C prior to separation by SDS -PAGE. […]

CECR2 = CECR2 (Homo sapiens, UniProt Q9BXF3); experiment: AlphaScreen selectivity screen, CECR2; assay type: binding
Sequence of CECR2 (Q9BXF3 434-538 limits assumed): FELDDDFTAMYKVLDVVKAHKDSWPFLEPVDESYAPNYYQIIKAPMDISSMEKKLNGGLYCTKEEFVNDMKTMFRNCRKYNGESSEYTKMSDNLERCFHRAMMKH
From the text: as §2, §3

MLLT1 = molecular target: T3, MLLT1 (Homo sapiens, UniProt Q03111); experiment: NanoBRET assay, full length MLLT1:Histone 3.3 in HEK293 cells; assay type: cell-based; details: relative to the DMSO control
T3 construct: We also developed a full length MLLT1:Histone 3.3 (H3.3) NanoBRET assay; host or cells: HEK293
T3 sequence (Q03111 whole entry): as the sequence (Q03111 whole entry) above
Method: transfected with Histone H3.3-HaloTag (NM_002107) and a NanoLuciferase fusion of MLLT1 or MLLT3 (WT sequences from Promega HaloTag® human ORF in pFN21A) at a 1:500 and 1:10 (NanoLuc® to HaloTag®) ratio respectively with FuGENE HD transfection regent. Sixteen hours post-transfection, cells were collected and exchanged into media containing phenol red-free DMEM and 4% FBS in the absence (control sample) or the
Compounds were then added directly to media (in the presence of SAHA 2.5 M) at final concentrations 0.01-30 μM or an equivalent amount of DMSO as a vehicle control, and the plates were incubated for 24 h at 37 °C in the presence
NanoBRET Nano-Glo substrate (Promega) was added to both control and experimental samples at a final concentration of 10 µM. Readings were performed within 5 minutes using
BRET ratios are expressed as milliBRET units (mBU), where 1 mBU corresponds to the corrected BRET ratio multiplied by 1000.
Mean±SD of BRET ratio (mBU), n=4 technical replicates.

YEATS2 = molecular target: T4, YEATS2 (Homo sapiens, UniProt Q9ULM3); experiment: AlphaScreen selectivity screen, YEATS2; assay type: binding
T4 construct: made in house; host or cells: E. coli Rosetta
T4 sequence (Q9ULM3 200-345 limits assumed): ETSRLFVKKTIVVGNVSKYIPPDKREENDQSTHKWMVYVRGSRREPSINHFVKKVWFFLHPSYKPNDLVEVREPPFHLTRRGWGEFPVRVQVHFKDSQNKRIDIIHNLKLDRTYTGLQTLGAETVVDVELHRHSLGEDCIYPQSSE
From the text: as §2, §3

[2] = molecular target: T5, endogenous MLLT1 in HEK293 cells (Homo sapiens, UniProt Q03111); experiment: Cellular thermal shift assay (CETSA), HEK293 cells; assay type: cell-based; details: Western blot
T5 construct: endogenous in cells; host or cells: HEK293
T5 sequence (Q03111 whole entry): as the sequence (Q03111 whole entry) above
Method: as §4, §5, §6, §7

MLLT3 YD = molecular target: T6, MLLT3 YD (Homo sapiens, UniProt P42568); experiment: Isothermal titration calorimetry (ITC), MLLT3 YD; assay type: binding
T6 construct: made in house; host or cells: E. coli Rosetta
T6 sequence (P42568 1-138 limits assumed): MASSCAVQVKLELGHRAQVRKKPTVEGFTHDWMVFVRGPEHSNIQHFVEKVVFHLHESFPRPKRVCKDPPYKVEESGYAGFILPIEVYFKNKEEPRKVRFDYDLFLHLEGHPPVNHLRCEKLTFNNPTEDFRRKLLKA
Method: Supplementary Table 1. AlphaScreen selectivity screen of compound 92 over other acyllysine […]
II.III Isothermal Titration Calorimetry (ITC)
Experiments were carried out on a Nano -ITC Standard Volume Instrument (TA Instruments).
All experiments were carried out at 25 °C in 20 mM HEPES pH 7.5, 150 mM NaCl, 0.5 mM TCEP and 5% glycerol. Protein soluti ons were buffer exchanged by gel filtration. The titrations were conducted using an initial injection of 2 μL followed by 32 injections of 8 μL.
Background dilution heat was subtracted from each experiment. Thermodynamic parameters […]
changes in free energy, enthalpy and entropy respectively. Independent single site binding models were employed in data analysis.
(also on this page, place not known: ac yllysine Nano-ITC -T 1/ KB. ΔH Molar&ratio&[injectant/cell] Time&[s] Corrected&Heat&Rate&[ucal/s] Experiment&1 K Experiment&2 K K)
as §1

SMILES: COC(=O)c1ccc(C(=O)Nc2ccc3[nH]c(CN4CCCCC4)nc3c2)cc1 [Compound 1]
- IC50 (MLLT1 YD): 2100 ± 780 nM

SMILES: C[C@H]1CCCN1Cc1nc2cc(NC(=O)c3ccc4c(cnn4C)c3)ccc2[nH]1 [Compound 92]
- inhibition of FALZ (FALZ; 10 μM using AS): no inhibition
- IC50 (FALZ; AlphaScreen selectivity screen): > 10000 nM
- thermal stabilisation of MLLT1 (CETSA) [1]: stabilisation of MLLT1
- inhibition of CECR2 (CECR2; 10 μM using AS): no inhibition
- IC50 (CECR2; AlphaScreen selectivity screen, read-out: CECR2 (2) IC50): > 10000 nM
- BRET activity (mBU), MLLT1:H3.3 NanoBRET (MLLT1): no reduction in mBU
- IC50 (YEATS2): > 10000 nM
- heat shock stabilisation of endogenous MLLT1 (CETSA) [2]: stabilisation
- Kd (MLLT3 YD): 77 nM
